Reference: patent US20260241013A1, “TARGETED PROTEIN DEGRADATION USING PRODRUGS OF BIFUNCTIONAL COMPOUNDS THAT BIND UBIQUITIN LIGASE AND A TARGET MCL-1 PROTEIN” (Captor Therapeutics S.A., priority 2022, published 2026)
Read-outs that look alike come from different tables or passages of the source.

What was measured:
Assay type in all cases: cell-based
MV4-11 cells = assay: Cell viability assay (CellTiter-Glo, CTG protocol), MV4-11; settings: Homo sapiens, MV4-11 (MCL-1 dependent AML line), 24 hours incubation, 1% FBS, read-out: Average pCC50 by molecule MV4-11 (converted)
Source text: (§1) The effect of various compounds of the invention on the viability of MV4-11 and ARH-77 cell lines was investigated, using the CTG protocol described below.
(§2) MV4-11 cell lines are derived from acute myeloid leukaemia and it is described in the literature as a MCL-1 dependent cell line, as opposed to lymphoblast-like ARH-77 cell line, which is described as independent of MCL-1 (Tron A E et al. Nat Commun. 2018; 9: 5341; Caenepeel S et al. Cancer Discov. 2018 December; 8(12): 1582-1597).
(§3) Cells (MV4-11 or ARH-77) were seeded on […] in a growth medium with 1% FBS. Next, compound stocks were pre-diluted in DMSO and added directly to the cell culture media (final DMSO concentration: 0.5%). Compound concentrations used in this assay: 1/3 dilutions starting at 30 μM (9 to 12 points). After 24 hours of incubation, cell viability was evaluated using CellTiter-Gob® Luminescent Cell Viability Assay (Promega, cat #G7572). The luminescence signal was measured using a CLARIOstar Plus Multi-Mode Microplate Reader (574-590 nm).
(§4) Results were normalized to DMSO control. Collected data were analyzed using GraphPad Prism to calculate pCC50 values (i.e. the negative log of the CC50 value). CC50 (50% cytotoxic concentration) is the effective concentration of a cytotoxic compound, which produces 50% of the maximum possible cell death (i.e. the concentration of the compound which is required in order to reduce cell viability by 50%). CC50 is often used rather than IC50 in cell toxicity assays.

MCL-1 protein = biological target: T1, MCL-1 protein (Homo sapiens, UniProt Q07820); assay: MCL-1 protein degradation in MV4-11 cells, Western blot; settings: 6 hours; for MCL-1 protein abundance: MV4-11, % of DMSO control, + Q-VD-Oph (pan-caspase inhibitor)
T1 construct: endogenous in cells; host or cells: MV4-11
Method: MV4-11 cells were maintained in IMDM medium, supplemented with penicillin/streptomycin and 10% Fetal Bovine Serum (FBS). MV4-11 cells were collected, centrifuged (250 rcf, 5 min), resuspended in a growth medium containing 10% FBS and counted. The cell suspension was then adjusted to 1×10^6 cells/ml using a growth medium containing 10% FBS. Afterwards, 0.5×10^6 cells were seeded on 24-well plates in 0.5 mL of medium per well. Immediately after seeding, cells were pre-treated for 30 minutes with DMSO or pan-caspase inhibitor—Q-VD-Oph. Next, compounds from stocks pre-diluted in DMSO were added directly to the cell culture medium in appropriate concentrations (the final DMSO concentration was 0.5%). Following the 6 hours treatment with the compounds, cells were collected from the plates and suspended in a lysis buffer (2% SDS, 50 mM Tris, pH 8.0, 100 U/ml Pierce Universal Nuclease for Cell Lysis, complete EDTA-free Protease Inhibitor Cocktail) and incubated on ice for 45 min. The amount of protein was determined via BCA assay, and an equal quantity of each sample was loaded on the precast gel for protein separation. After the antibody staining for MCL-1, α-tubulin, and cleaved forms of PARP and caspase 3, the membranes were washed and signals developed.
Densitometric values for MCL-1 were normalized to total protein level (stain-free membrane). [%] of protein reduction is calculated in comparison to the cells treated with DMSO, which stand for 0%.

CRBN = biological target: T2, CRBN (Homo sapiens, UniProt Q96SW2); assay: NanoBRET In-cell CRBN Target Engagement Assay (live and lytic mode), NanoLuc CRBN HEK293 cells
T2 construct: host or cells: HEK293 (NanoLuc CRBN HEK293 cells)
Method: Commercially available, NanoBRET In-cell CRBN Target Engagement Assay (NanoBRET CRBN TE Assay), which uses NanoLuc CRBN HEK293 cells and NanoBRET In-cell CRBN Tracer was used (N2910, N2912, PROMEGA) to determine the cell membrane permeability of prodrugs of MCL-1 degraders.
The assay was run in 96-well plate format (cat. 3600, Corning). NanoLuc CRBN HEK293 cells were treated with CRBN Tracer and compounds. Briefly, prepared was cell suspension (0.17×10^6cells/ml) in Opti-MEM without phenol red (Life Technologies). The cells were treated with CRBN Tracer (20× concentrated, 5 μl/well. For the live mode: 0.8 μM and for the lytic: 0.17 μM final concentration) or DMSO vehicle control (20× concentrated, 5 μl/well). Such prepared cells were seeded into the wells of 96-well plate on top of compounds (100× concentrated, 1 μl/well; 11-point 2-fold dilution) pre-plated on them with the help of Echo 555 acoustic dispenser (Labcyte). For the lytic mode assay, Digitonin (0.05 mg/ml, 10× concentrated, 10 μl/well) was added additionally. In the live mode assay, the plate was incubated at 37° C., 5% CO2 for 2 hours, and then at room temperature for 15 minutes to cool down. In the lytic mode assay, there was no incubation. The 3×Complete NanoBRET reagent (50 μl/well) was prepared according to the manufacturer's recommendations, appropriately for live and lytic mode. The plate was incubated for 2 minutes at room temperature and the luminescence and fluorescence readings followed using CLARIOstar Multimode Plate Reader (donor emission RLU—450 nm; acceptor emission RFU—610 nm). RBA value is an indicator of cell membrane permeability (the lower, the better) is calculated from absolute pIC50 (the negative log of the absolute IC50 value when converted to molar) of the live mode assay (pIC50 Live) and the lytic mode assay (pIC50 Lytic).

[1] = Cell viability assay (CellTiter-Glo, CTG protocol), ARH-77; settings: human, ARH-77 cells (lymphoblast-like), ARH-77 (MCL-1 independent line), 24 hours incubation, 1% FBS, read-out: Average pCC50 by molecule ARH-77 (converted)
Source text: as §1, §2, §3, §4

[2] = live mode, intact cells, 2 hours at 37° C., read-out: pIC50 (live) (converted)
[3] = lytic mode, digitonin-lysed cells, no incubation, read-out: pIC50 (lytic) (converted)

T1 sequence (Q07820 whole entry): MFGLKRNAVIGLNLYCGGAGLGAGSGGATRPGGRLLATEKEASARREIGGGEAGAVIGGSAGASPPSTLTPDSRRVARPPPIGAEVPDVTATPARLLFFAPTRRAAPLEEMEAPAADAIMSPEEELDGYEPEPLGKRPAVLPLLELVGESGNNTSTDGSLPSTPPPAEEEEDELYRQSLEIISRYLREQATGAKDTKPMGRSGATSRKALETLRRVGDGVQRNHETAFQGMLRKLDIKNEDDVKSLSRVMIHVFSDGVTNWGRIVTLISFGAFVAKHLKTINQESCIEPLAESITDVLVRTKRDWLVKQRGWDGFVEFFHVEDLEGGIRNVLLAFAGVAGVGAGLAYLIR
T2 sequence (Q96SW2 whole entry): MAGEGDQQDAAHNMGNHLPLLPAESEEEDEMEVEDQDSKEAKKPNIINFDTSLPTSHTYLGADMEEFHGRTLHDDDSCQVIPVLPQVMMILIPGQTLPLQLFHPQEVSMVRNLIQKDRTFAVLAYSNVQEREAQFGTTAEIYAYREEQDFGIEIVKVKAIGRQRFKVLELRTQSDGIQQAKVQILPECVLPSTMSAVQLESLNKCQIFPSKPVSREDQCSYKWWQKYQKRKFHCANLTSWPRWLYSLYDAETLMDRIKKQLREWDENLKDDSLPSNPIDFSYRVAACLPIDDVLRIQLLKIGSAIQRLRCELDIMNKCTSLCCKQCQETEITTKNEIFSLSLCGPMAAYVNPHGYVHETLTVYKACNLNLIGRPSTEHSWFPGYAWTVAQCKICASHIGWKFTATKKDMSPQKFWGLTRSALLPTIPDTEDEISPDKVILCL

Row | IC50 (CRBN; [2]) | IC50 (CRBN; [3]) | Structure (SMILES) | CC50 (MV4-11 cells) | MCL-1 protein abundance (MCL-1 protein; 1 nM) | MCL-1 protein abundance (MCL-1 protein; 10 nM) | MCL-1 protein abundance (MCL-1 protein; 100 nM) | MCL-1 protein degradation (Western blot, in words) (MCL-1 protein; MV4-11 cells, in the presence of apoptosis inhibitor) | CC50 at 24 h [1]
1 | 63.1 nM | 794 nM | CCOCCOCCOC(=O)OC(C)OC(=O)c1c(CCCOc2cccc3cc(F)ccc23)c2ccc(Cl)c(-c3c(C)nn(C)c3C)c2n1CCN1CCN(C(=O)COc2cccc3c2CN(C2CCC(=O)NC2=O)C3=O)CC1 (stereo not shown) [Compound 101, 4-Oxo-3,5,8,11-tetraoxatridecan-2-yl 6-chloro-1-(2-(4-(2-((2-(2,6-dioxopiperidin-3-yl)-1-oxoisoindolin-4-yl)oxy)acetyl)piperazin-1-yl)ethyl)-3-(3-((6-fluoronaphthalen-1-yl)oxy)propyl)-7-(1,3,5-trimethyl-1H-pyrazol-4-yl)-1H-indole-2-carboxylate] | < 31.6 nM |  |  |  |  | > 31.6 µM
2 | 39.8 nM | 79.4 nM | Cc1nn(C)c(C)c1-c1c(Cl)ccc2c(CCCOc3cccc4cc(F)ccc34)c(C(=O)OCOC(=O)CCO)n(CCN3CCN(C(=O)COc4cccc5c4CN(C4CCC(=O)NC4=O)C5=O)CC3)c12 (stereo not shown) [Compound 43] | < 3.16 nM |  |  |  |  | > 3.16 µM
3 | 12.6 nM | 316 nM | Cc1nn(C)c(C)c1-c1c(Cl)ccc2c(CCCOc3cccc4cc(F)ccc34)c(C(=O)OCOC(=O)C(C)(C)C)n(CCN3CCN(C(=O)COc4ccc5c(c4)n(C)c(=O)n5C4CCC(=O)NC4=O)CC3)c12 (stereo not shown) [Compound 74, (Pivaloyloxy)methyl 6-chloro-1-(2-(4-(2-((1-(2,6-dioxopiperidin-3-yl)-3-methyl-2-oxo-2,3-dihydro-1H-benzo[d]imidazol-5-yl)oxy)acetyl)piperazin-1-yl)ethyl)-3-(3-((6-fluoronaphthalen-1-yl)oxy)propyl)-7-(1,3,5-trimethyl-1H-pyrazol-4-yl)-1H-indole-2-carboxylate] | < 3.16 nM |  |  |  |  | > 1 µM
4 | 6.31 nM | 398 nM | Cc1nn(C)c(C)c1-c1c(Cl)ccc2c(CCCOc3cccc4cc(F)ccc34)c(C(=O)OCOC(=O)C(C)(C)C)n(CCN3CCN(C(=O)COc4cccc5c4n(C)c(=O)n5C4CCC(=O)NC4=O)CC3)c12 (stereo not shown) [Compound 73, (Pivaloyloxy)methyl 6-chloro-1-(2-(4-(2-((1-(2,6-dioxopiperidin-3-yl)-3-methyl-2-oxo-2,3-dihydro-1H-benzo[d]imidazol-4-yl)oxy)acetyl)piperazin-1-yl)ethyl)-3-(3-((6-fluoronaphthalen-1-yl)oxy)propyl)-7-(1,3,5-trimethyl-1H-pyrazol-4-yl)-1H-indole-2-carboxylate] | < 3.16 nM |  |  |  |  | > 1 µM
5 |  |  | Cc1nn(C)c(C)c1-c1c(Cl)ccc2c(CCCOc3cccc4cc(F)ccc34)c(C(=O)OCOC(=O)C3CCNCC3)n(CCN3CCN(C(=O)COc4cccc5c4CN(C4CCC(=O)NC4=O)C5=O)CC3)c12 (stereo not shown) [Compound 55, ((Piperidine-4-carbonyl)oxy)methyl 6-chloro-1-(2-(4-(2-((2-(2,6-dioxopiperidin-3-yl)-1-oxoisoindolin-4-yl)oxy)acetyl)piperazin-1-yl)ethyl)-3-(3-((6-fluoronaphthalen-1-yl)oxy)propyl)-7-(1,3,5-trimethyl-1H-pyrazol-4-yl)-1H-indole-2-carboxylate] | < 100 nM |  |  |  |  | > 10 µM
6 | 25.1 nM | 7940 nM | Cc1nn(C)c(C)c1-c1c(Cl)ccc2c(CCCOc3cccc4cc(F)ccc34)c(C(=O)OCOC(=O)C(C)(C)C)n(CCN3CCN(C(=O)Cn4c(C)nc5c(C(=O)NC6CCC(=O)NC6=O)cccc54)CC3)c12 (stereo not shown) [Compound 70, (6-Chloro-1-{2-[4-(2-{4-[(2,6-dioxopiperidin-3-yl)carbamoyl]-2-methyl-1H-1,3-benzodiazol-1-yl}acetyl)piperazin-1-yl]ethyl}-3-{3-[(6-fluoronaphthalen-1-yl)oxy]propyl}-7-(1,3,5-trimethyl-1H-pyrazol-4-yl)-1H-indole-2-carbonyloxy)methyl 2,2-dimethylpropanoate] | < 10 nM |  |  |  |  | > 31.6 µM
7 |  |  | Cc1nn(C)c(C)c1-c1c(Cl)ccc2c(CCCOc3cccc4cc(F)ccc34)c(C(=O)OC(C)OC(=O)OC(C)C)n(CCN3CCN(C(=O)COc4cccc5c4CN(C4CCC(=O)NC4=O)C5=O)CC3)c12 (stereo not shown) [Compound 99, 1-{[(Propan-2-yloxy)carbonyl]oxy}ethyl 6-chloro-1-{2-[4-(2-{[2-(2,6-dioxopiperidin-3-yl)-1-oxo-2,3-dihydro-1H-isoindol-4-yl]oxy}acetyl)piperazin-1-yl]ethyl}-3-{3-[(6-fluoronaphthalen-1-yl)oxy]propyl}-7-(1,3,5-trimethyl-1H-pyrazol-4-yl)-1H-indole-2-carboxylate] | < 31.6 nM |  |  |  |  | > 31.6 µM
8 |  |  | Cc1nn(C)c(C)c1-c1c(Cl)ccc2c(CCCOc3cccc4cc(F)ccc34)c(C(=O)OC(C)OC(=O)OC3CCCCC3)n(CCN3CCN(C(=O)COc4cccc5c4CN(C4CCC(=O)NC4=O)C5=O)CC3)c12 (stereo not shown) [Compound 100, 1-(((Cyclohexyloxy)carbonyl)oxy)ethyl 6-chloro-1-(2-(4-(2-((2-(2,6-dioxopiperidin-3-yl)-1-oxoisoindolin-4-yl)oxy)acetyl)piperazin-1-yl)ethyl)-3-(3-((6-fluoronaphthalen-1-yl)oxy)propyl)-7-(1,3,5-trimethyl-1H-pyrazol-4-yl)-1H-indole-2-carboxylate] | < 31.6 nM |  |  |  |  | > 31.6 µM

Row | Structure (SMILES) | IC50 (CRBN; [2]) | IC50 (CRBN; [3]) | CC50 (MV4-11 cells) | MCL-1 protein abundance (MCL-1 protein; 1 nM) | MCL-1 protein abundance (MCL-1 protein; 10 nM) | MCL-1 protein abundance (MCL-1 protein; 100 nM) | MCL-1 protein degradation (Western blot, in words) (MCL-1 protein; MV4-11 cells, in the presence of apoptosis inhibitor) | CC50 at 24 h [1]
9 | CC(=O)OCOC(=O)c1c(CCCOc2cccc3cc(F)ccc23)c2ccc(Cl)c(-c3c(C)nn(C)c3C)c2n1CCN1CCN(C(=O)COc2cccc3c2CN(C2CCC(=O)NC2=O)C3=O)CC1 (stereo not shown) [Compound 41, Acetoxymethyl 6-chloro-1-(2-(4-(2-((2-(2,6-dioxopiperidin-3-yl)-1-oxoisoindolin-4-yl)oxy)acetyl)piperazin-1-yl)ethyl)-3-(3-((6-fluoronaphthalen-1-yl)oxy)propyl)-7-(1,3,5-trimethyl-1H-pyrazol-4-yl)-1H-indole-2-carboxylate] | 7.94 nM | 501 nM | < 1 nM | B (Amount of MCL-1 protein >25% and ≤50% calculated as % of DMSO control) | A (Amount of MCL-1 protein ≤25% calculated as % of DMSO control) | A (Amount of MCL-1 protein ≤25% calculated as % of DMSO control) | MCL-1 protein degradation | > 10 µM
